Test results taken from ChEMBL document CHEMBL4406866, “Design, synthesis and evaluation of 5-(4-hydroxyphenyl)-3H-1,2-dithiole-3-thione-Based fibrates as potential hypolipidemic and hepatoprotective agents” (Bioorg Med Chem Lett, 2019).
Active and inactive are the calls of the source. The calls are words filed in the database; no cut-off is given here.

Legend:
[1] = Drug metabolism in po dosed mouse plasma assessed as H2S release by measuring hydrogen sulfide level administered for 7 days and measured following 12 hrs fasting on day 7 (reference value: 52.9 +/- 5.4 umol/L); format: ADME, organism-based; settings: in vivo
[2] = Drug metabolism in po dosed mouse liver assessed as H2S release by measuring hydrogen sulfide level administered for 7 days and measured following 12 hrs fasting on day 7 (reference value: 93.8 +/- 6.1 nmol/g); format: ADME, organism-based; settings: in vivo
Mus musculus [3] = species: Mus musculus; settings: at 13 mg/kg
Description: Hypolipidemic activity in Triton WR1339-induced hyperlipidemia mouse model assessed as decrease in serum TG level at 13 mg/kg, ig administered for one week and administered with Triton WR 1339 on day 6 and measured after 24 hrs

Mus musculus [4] = species: Mus musculus; settings: at 13 mg/kg; remark: listed apart in the source
Description: Hypolipidemic activity in Triton WR1339-induced hyperlipidemia mouse model assessed as decrease in serum TC level at 13 mg/kg, ig administered for one week and administered with Triton WR 1339 on day 6 and measured after 24 hrs

Mus musculus [5] = species: Mus musculus; settings: at 13 mg/kg; remark: listed apart in the source
Description: Hypolipidemic activity in Triton WR1339-induced hyperlipidemia mouse model assessed as decrease in serum MDA level at 13 mg/kg, ig administered for one week and administered with Triton WR 1339 on day 6 and measured after 24 hrs

Rattus norvegicus [6] = assay: Hepatoprotective activity in Met-induced hyperlipidemia rat model assessed as decrease in serum AST level at 9 mg/kg, po administered with compound for last 30 days during feeding of 0.2% Met solution for 60 days; format: functional, organism-based
Rattus norvegicus [7] = assay: Hepatoprotective activity in Met-induced hyperlipidemia rat model assessed as decrease in serum ALT level at 9 mg/kg, po administered with compound for last 30 days during feeding of 0.2% Met solution for 60 days; format: functional, organism-based
Rattus norvegicus [8] = assay: Hepatoprotective activity in Met-induced hyperlipidemia rat model assessed as decrease in red lipid droplets in hepatocytes at 9 mg/kg, po administered with compound for last 30 days during feeding of 0.2% Met solution for 60 days by oil red O-staining based microscopic analysis; format: functional, organism-based
Rattus norvegicus [9] = assay: Upregulation of PPAR-alpha protein expression in liver of Met-induced hyperlipidemia rat model at 9 mg/kg, po administered with compound for last 30 days during feeding of 0.2% Met solution for 60 days; format: functional, organism-based
Rattus norvegicus [10] = assay: Hypolipidemic activity in Met-induced hyperlipidemia rat model assessed as increase in serum hydrogen sulfide level at 9 mg/kg, po administered with compound for last 30 days during feeding of 0.2% Met solution for 60 days; format: functional, organism-based
Rattus norvegicus [11] = assay: Hypolipidemic activity in Met-induced hyperlipidemia rat model assessed as decrease in serum TG level at 9 mg/kg, po administered with compound for last 30 days during feeding of 0.2% Met solution for 60 days; format: functional, organism-based
Rattus norvegicus [12] = assay: Hypolipidemic activity in Met-induced hyperlipidemia rat model assessed as decrease in serum TC level at 9 mg/kg, po administered with compound for last 30 days during feeding of 0.2% Met solution for 60 days; format: functional, organism-based
Rattus norvegicus [13] = assay: Hypolipidemic activity in Met-induced hyperlipidemia rat model assessed as decrease in atherosclerosis index at 9 mg/kg, po administered with compound for last 30 days during feeding of 0.2% Met solution for 60 days; format: functional, organism-based
Rattus norvegicus [14] = assay: Antioxidant activity in Met-induced hyperlipidemia rat model assessed as increase in serum SOD level at 9 mg/kg, po administered with compound for last 30 days during feeding of 0.2% Met solution for 60 days; format: functional, organism-based
Rattus norvegicus [15] = assay: Antioxidant activity in Met-induced hyperlipidemia rat model assessed as increase in serum T-AOC level at 9 mg/kg, po administered with compound for last 30 days during feeding of 0.2% Met solution for 60 days; format: functional, organism-based
Rattus norvegicus [16] = assay: Antioxidant activity in Met-induced hyperlipidemia rat model assessed as decrease in serum MDA level at 9 mg/kg, po administered with compound for last 30 days during feeding of 0.2% Met solution for 60 days; format: functional, organism-based
Rattus norvegicus [17] = assay: Antiinflammatory activity in Met-induced hyperlipidemia rat model assessed as decrease in serum TNF-alpha level at 9 mg/kg, po administered with compound for last 30 days during feeding of 0.2% Met solution for 60 days by ELISA; format: functional, organism-based
Rattus norvegicus [18] = assay: Antiinflammatory activity in Met-induced hyperlipidemia rat model assessed as decrease in serum IL-6 level at 9 mg/kg, po administered with compound for last 30 days during feeding of 0.2% Met solution for 60 days by ELISA; format: functional, organism-based
Rattus norvegicus [19] = assay: Hepatoprotective activity in Met-induced hyperlipidemia rat model assessed as improvement in hepatic tissue hemorrhagic symptoms at 9 mg/kg, po administered with compound for last 30 days during feeding of 0.2% Met solution for 60 days by microscopic analysis; format: functional, organism-based
Rattus norvegicus [20] = assay: Hepatoprotective activity in Met-induced hyperlipidemia rat model assessed as decrease in inflammatory cell infiltration in liver at 9 mg/kg, po administered with compound for last 30 days during feeding of 0.2% Met solution for 60 days by microscopic analysis; format: functional, organism-based
Rattus norvegicus [21] = assay: Vasorelaxation activity in Met-induced hyperlipidemia rat model assessed as effect on serum ET-1 level at 9 mg/kg, po administered with compound for last 30 days during feeding of 0.2% Met solution for 60 days; format: functional, organism-based
Rattus norvegicus [22] = assay: Hypolipidemic activity in Met-induced hyperlipidemia rat model assessed as decrease in serum Hcy level at 9 mg/kg, po administered with compound for last 30 days during feeding of 0.2% Met solution for 60 days; format: functional, organism-based
[23] = Drug metabolism in Met-induced hyperlipidemia rat model assessed as H2S release by measuring increase in serum hydrogen sulfide level at 9 mg/kg, po administered with compound for last 30 days during feeding of 0.2% Met solution for 60 days; format: ADME, organism-based; settings: in vivo

SMILES	Drug metabolism [1] [µmol/L]	Drug metabolism [2] [nmol/g]	inhibition (Mus musculus [3])	inhibition (Mus musculus [4])	inhibition (Mus musculus [5])	further results
COC(=O)CCCOc1ccc(-c2cc(=S)ss2)cc1	95.5	130.5	Active	Active	Active	
CCC(Oc1ccc(-c2cc(=S)ss2)cc1)C(=O)OC (stereo unspecified)	128.8	159.5	Active		Active	
CC(C)OC(=O)C(C)(C)Oc1ccc(C(=O)c2ccc(Cl)cc2)cc1						Activity (Rattus norvegicus [6]): Active; Activity (Rattus norvegicus [7]): inactive; Activity (Rattus norvegicus [8]): Active; Activity (Rattus norvegicus [9]): Active; Activity (Rattus norvegicus [10]): Active
COC(=O)C(C)Oc1ccc(-c2cc(=S)ss2)cc1 (stereo unspecified)	119.3	164.8	Active			
COC(=O)CCCCOc1ccc(-c2cc(=S)ss2)cc1	86.5	155.5	Active	Active		

Further lines, with some results ahead:

Drug metabolism [1] [µmol/L]	Drug metabolism [2] [nmol/g]	SMILES	inhibition (Mus musculus [3])	inhibition (Mus musculus [4])	inhibition (Mus musculus [5])	further results
113.4	165.6	COC(=O)C(C)(C)Oc1ccc(-c2cc(=S)ss2)cc1	Active	Active	Active	inhibition (Rattus norvegicus [11]): Active; inhibition (Rattus norvegicus [12]): Active; inhibition (Rattus norvegicus [13]): Active; Activity (Rattus norvegicus [14]): Active; Activity (Rattus norvegicus [15]): Active; inhibition (Rattus norvegicus [16]): Active; inhibition (Rattus norvegicus [17]): Active; inhibition (Rattus norvegicus [18]): Active; Activity (Rattus norvegicus [6]): Active; Activity (Rattus norvegicus [7]): Active; Activity (Rattus norvegicus [8]): Active; Activity (Rattus norvegicus [19]): Active; Activity (Rattus norvegicus [20]): Active; Activity (Rattus norvegicus [21]): inactive; inhibition (Rattus norvegicus [22]): Active; Drug metabolism [23]: Metabolite_Detected; Activity (Rattus norvegicus [9]): Active
184.6	181.3	COc1ccc(-c2cc(=S)ss2)cc1 [ANETHOLTRITHION]	inactive	inactive	Active	
93.7	132.1	COC(=O)CCCCCOc1ccc(-c2cc(=S)ss2)cc1	Active			
